Experimental data published in patent US20260285850A1, “SUBSTITUTED OXAZOLIDINONES AND IMIDAZOLINONES AS HERBICIDES” (FMC CORPORATION, priority 2023, published 2026).

How the values were obtained:
Assay type in all cases: in vivo
[1] = system: horseweed (Erigeron canadensis); assay: Test A postemergence application, visual injury rating 0-100; conditions: Postemergence
Method in brief: (§1)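 Greenhouse test: loam/sand pots received a surfactant-containing formulation, as a preemergence directed soil spray or a postemergence spray on young plants. Injury was judged visually at day 10 relative to untreated controls.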

[2] = system: ragweed (common ragweed, Ambrosia artemisiifolia); assay: as above; conditions: Postemergence
Method in brief: as §1

[3] = system: corn (Zea mays); assay: as above; conditions: Postemergence
Method in brief: as §1

[4] = system: barnyardgrass (Echinochloa crus-galli); assay: as above; conditions: Postemergence
Method in brief: as §1

[5] = system: galium (catchweed bedstraw, Galium aparine); assay: as above; conditions: Postemergence
Method in brief: as §1

[6] = system: soybean (Glycine max); assay: as above; conditions: Postemergence
Method in brief: as §1

[7] = system: palmer (palmer amaranth, palmer pigweed, Amaranthus palmeri); assay: as above; conditions: Postemergence
Method in brief: as §1

[8] = system: blackgrass (Alopecurus myosuroides); assay: as above; conditions: Postemergence
Method in brief: as §1

[9] = system: oat, wild (wild oat, Avena fatua); assay: as above; conditions: Postemergence
Method in brief: as §1

[10] = system: ryegrass, Italian (italian ryegrass, Lolium multiflorum); assay: as above; conditions: Postemergence
Method in brief: as §1

[11] = system: kochia (Bassia scoparia); assay: as above; conditions: Postemergence
Method in brief: as §1

[12] = system: wheat (Triticum aestivum); assay: as above; conditions: Postemergence
Method in brief: as §1

[13] = system: ragweed (common ragweed, Ambrosia artemisiifolia); assay: Test A preemergence soil spray, visual injury rating 0-100; conditions: 10 days, 0 = no effect, 100 = complete control; for Ragweed plant response rating (0-100): 31 g ai/ha; for Ragweed plant response rating (0 to 100 scale): 125 g ai/ha
Method in brief: as §1

[14] = system: corn (Zea mays); assay: as above; conditions: 10 days, 0 = no effect, 100 = complete control; for Corn plant response rating (0-100): 31 g ai/ha; for Corn plant response rating (0 to 100 scale): 125 g ai/ha
Method in brief: as §1

[15] = system: barnyardgrass (Echinochloa crus-galli); assay: as above; conditions: 10 days, 0 = no effect, 100 = complete control; for Barnyardgrass plant response rating (0-100): 31 g ai/ha; for Barnyardgrass plant response rating (0 to 100 scale): 125 g ai/ha
Method in brief: as §1

[16] = system: soybean (Glycine max); assay: as above; conditions: 10 days, 0 = no effect, 100 = complete control; for Soybean plant response rating (0-100): 31 g ai/ha; for Soybean plant response rating (0 to 100 scale): 125 g ai/ha
Method in brief: as §1

[17] = system: palmer (palmer amaranth, palmer pigweed, Amaranthus palmeri); assay: as above; conditions: 10 days, 0 = no effect, 100 = complete control; for Amaranth, Palmer plant response rating (0-100): 31 g ai/ha; for Amaranth, Palmer plant response rating (0 to 100 scale): 125 g ai/ha
Method in brief: as §1

[18] = system: blackgrass (Alopecurus myosuroides); assay: as above; conditions: 10 days, 0 = no effect, 100 = complete control; for Blackgrass plant response rating (0-100): 31 g ai/ha; for Blackgrass plant response rating (0 to 100 scale): 125 g ai/ha
Method in brief: as §1

[19] = system: oat, wild (wild oat, Avena fatua); assay: as above; conditions: 10 days, 0 = no effect, 100 = complete control; for Oat, Wild plant response rating (0-100): 31 g ai/ha; for Oat, Wild plant response rating (0 to 100 scale): 125 g ai/ha
Method in brief: as §1

[20] = system: ryegrass, Italian (italian ryegrass, Lolium multiflorum); assay: as above; conditions: 10 days, 0 = no effect, 100 = complete control; for Ryegrass, Italian plant response rating (0-100): 31 g ai/ha; for Ryegrass, Italian plant response rating (0 to 100 scale): 125 g ai/ha
Method in brief: as §1

[21] = system: kochia (Bassia scoparia); assay: as above; conditions: 10 days, 0 = no effect, 100 = complete control; for Kochia plant response rating (0-100): 31 g ai/ha; for Kochia plant response rating (0 to 100 scale): 125 g ai/ha
Method in brief: as §1

[22] = system: wheat (Triticum aestivum); assay: as above; conditions: 10 days, 0 = no effect, 100 = complete control; for Wheat plant response rating (0-100): 31 g ai/ha; for Wheat plant response rating (0 to 100 scale): 125 g ai/ha
Method in brief: as §1

[23] = system: sedge, umbrella (small-flower umbrella sedge, Cyperus difformis); assay: Test B flooded paddy test, visual plant response rating 0-100; conditions: 250 g ai/ha, Flood, applied to paddy water, evaluated after 13 days
Method in brief: (§2)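 Compounds applied to standing paddy water (3 cm above soil, maintained for the test duration) on 2-leaf-stage plants; visual rating vs controls at 13 days, greenhouse.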

[24] = system: rice (Oryza sativa); assay: as above; conditions: 250 g ai/ha, Flood, applied to paddy water, evaluated after 13 days
Method in brief: as §2

[25] = system: ducksalad (Heteranthera limosa); assay: as above; conditions: 250 g ai/ha, Flood, applied to paddy water, evaluated after 13 days
Method in brief: as §2

[26] = system: barnyardgrass (Echinochloa crusgalli); assay: as above; conditions: 250 g ai/ha, Flood, applied to paddy water, evaluated after 13 days
Method in brief: as §2

[27] = 31 g ai/ha, greenhouse 10 days, 0 no effect, 100 complete control
[28] = 125 g ai/ha, 10 days, 0 is no effect, 100 is complete control

For `CC1(C(=O)NC2CC=C(C(=O)OCC(F)(F)F)C2)CN(c2cc(Cl)cc(Cl)c2)C(=O)O1` (stereo not drawn) [Compound 71], the “Horseweed plant response rating (0 to 100 scale)” value (“Horseweed plant response rating” for short) [1, 27] was 10, the “Horseweed plant response rating” value [1, 28] was 70 and the “Ragweed plant response rating (0 to 100 scale)” value [2, 27] was 60. For the same compound, the “Ragweed plant response rating (0 to 100 scale)” value [2, 28] was 60, the “Corn plant response rating (0 to 100 scale)” value [3, 27] was 100 and the “Corn plant response rating (0 to 100 scale)” value [3, 28] was 100. The “Barnyardgrass plant response rating (0 to 100 scale)” value [4, 27] was 90, the “Barnyardgrass plant response rating (0 to 100 scale)” value [4, 28] was 90 and the “Galium plant response rating (0 to 100 scale)” value (“Galium plant response rating” below) [5, 27] was 80. The “Galium plant response rating” value [5, 28] was 80, the “Soybean plant response rating (0 to 100 scale)” value [6, 27] was 70 and the “Soybean plant response rating (0 to 100 scale)” value [6, 28] was 90. The “Amaranth, Palmer / Pigweed, Palmer plant response rating (0 to 100 scale)” value (“Amaranth, Palmer / Pigweed” below) [7, 27] was 90, the “Amaranth, Palmer / Pigweed” value [7, 28] was 90 and the “Blackgrass plant response rating (0 to 100 scale)” value [8, 27] was 80. The “Blackgrass plant response rating (0 to 100 scale)” value [8, 28] was 90, the “Oat, Wild plant response rating (0 to 100 scale)” value (“Oat … (0 to 100 scale)” below) [9, 27] was 40 and the “Oat … (0 to 100 scale)” value [9, 28] was 90. The “Ryegrass, Italian plant response rating (0 to 100 scale)” value (“Ryegrass … (0 to 100 scale)” for short) [10, 27] was 60, the “Ryegrass … (0 to 100 scale)” value [10, 28] was 70 and the “Kochia plant response rating (0 to 100 scale)” value [11, 27] was 80. For the same compound, the “Kochia plant response rating (0 to 100 scale)” value [11, 28] was 90, the “Wheat plant response rating (0 to 100 scale)” value [12, 27] was 80 and the “Wheat plant response rating (0 to 100 scale)” value [12, 28] was 90. The “Ragweed plant response rating (0-100)” value [13] was 0, the “Ragweed plant response rating (0 to 100 scale)” value [13] was 30 and the “Corn plant response rating (0-100)” value [14] was 30. For the same compound, the “Corn plant response rating (0 to 100 scale)” value [14] was 50, the “Barnyardgrass plant response rating (0-100)” value [15] was 50 and the “Barnyardgrass plant response rating (0 to 100 scale)” value [15] was 90. The “Soybean plant response rating (0-100)” value [16] was 10, the “Soybean plant response rating (0 to 100 scale)” value [16] was 70 and the “Amaranth, Palmer plant response rating (0-100)” value [17] was 90. The “Amaranth, Palmer plant response rating (0 to 100 scale)” value [17] was 100, the “Blackgrass plant response rating (0-100)” value [18] was 0 and the “Blackgrass plant response rating (0 to 100 scale)” value [18] was 50. The “Oat, Wild plant response rating (0-100)” value [19] was 20, the “Oat … (0 to 100 scale)” value [19] was 30 and the “Ryegrass, Italian plant response rating (0-100)” value [20] was 40. For the same compound, the “Ryegrass … (0 to 100 scale)” value [20] was 70, the “Kochia plant response rating (0-100)” value [21] was 70 and the “Kochia plant response rating (0 to 100 scale)” value [21] was 90. The “Wheat plant response rating (0-100)” value [22] was 60, the “Wheat plant response rating (0 to 100 scale)” value [22] was 90 and the “Plant response rating, Sedge, Umbrella (0 to 100 scale, 0 is no effect and 100 is complete control)” value [23] was 100. For the same compound, the “Plant response rating, Rice (0 to 100 scale, 0 is no effect and 100 is complete control)” value [24] was 85, the “Plant response rating, Ducksalad (0 to 100 scale, 0 is no effect and 100 is complete control)” value [25] was 70 and the “Plant response rating, Barnyardgrass (0 to 100 scale, 0 is no effect and 100 is complete control)” value [26] was 80.
In the case of `CC1(C(=O)NC2CC=C(C(=O)O)C2)CN(c2cc(Cl)cc(Cl)c2)C(=O)O1` (stereo not drawn) [Compound 72], the “Horseweed plant response rating” value [1, 27] is reported as 70, the “Horseweed plant response rating” value [1, 28] is reported as 80 and the “Ragweed plant response rating (0 to 100 scale)” value [2, 27] is reported as 50. The “Ragweed plant response rating (0 to 100 scale)” value [2, 28] was 70, the “Corn plant response rating (0 to 100 scale)” value [3, 27] was 100 and the “Corn plant response rating (0 to 100 scale)” value [3, 28] was 100. For the same compound, the “Barnyardgrass plant response rating (0 to 100 scale)” value [4, 27] was 90, the “Barnyardgrass plant response rating (0 to 100 scale)” value [4, 28] was 90 and the “Galium plant response rating” value [5, 27] was 80. For the same compound, the “Galium plant response rating” value [5, 28] was 80, the “Soybean plant response rating (0 to 100 scale)” value [6, 27] was 80 and the “Soybean plant response rating (0 to 100 scale)” value [6, 28] was 90. The “Amaranth, Palmer / Pigweed” value [7, 27] was 90, the “Amaranth, Palmer / Pigweed” value [7, 28] was 90 and the “Blackgrass plant response rating (0 to 100 scale)” value [8, 27] was 90. For the same compound, the “Blackgrass plant response rating (0 to 100 scale)” value [8, 28] was 90, the “Oat … (0 to 100 scale)” value [9, 27] was 40 and the “Oat … (0 to 100 scale)” value [9, 28] was 60. For the same compound, the “Ryegrass … (0 to 100 scale)” value [10, 27] was 70, the “Ryegrass … (0 to 100 scale)” value [10, 28] was 70 and the “Kochia plant response rating (0 to 100 scale)” value [11, 27] was 80. For the same compound, the “Kochia plant response rating (0 to 100 scale)” value [11, 28] was 80, the “Wheat plant response rating (0 to 100 scale)” value [12, 27] was 80 and the “Wheat plant response rating (0 to 100 scale)” value [12, 28] was 90. For the same compound, the “Ragweed plant response rating (0-100)” value [13] was 0, the “Ragweed plant response rating (0 to 100 scale)” value [13] was 40 and the “Corn plant response rating (0-100)” value [14] was 0. For the same compound, the “Corn plant response rating (0 to 100 scale)” value [14] was 60, the “Barnyardgrass plant response rating (0-100)” value [15] was 60 and the “Barnyardgrass plant response rating (0 to 100 scale)” value [15] was 90. For the same compound, the “Soybean plant response rating (0-100)” value [16] was 0, the “Soybean plant response rating (0 to 100 scale)” value [16] was 80 and the “Amaranth, Palmer plant response rating (0-100)” value [17] was 90. The “Amaranth, Palmer plant response rating (0 to 100 scale)” value [17] was 100, the “Blackgrass plant response rating (0-100)” value [18] was 0 and the “Blackgrass plant response rating (0 to 100 scale)” value [18] was 30. The “Oat, Wild plant response rating (0-100)” value [19] was 10, the “Oat … (0 to 100 scale)” value [19] was 40 and the “Ryegrass, Italian plant response rating (0-100)” value [20] was 40. For the same compound, the “Ryegrass … (0 to 100 scale)” value [20] was 80, the “Kochia plant response rating (0-100)” value [21] was 80 and the “Kochia plant response rating (0 to 100 scale)” value [21] was 90. For the same compound, the “Wheat plant response rating (0-100)” value [22] was 40, the “Wheat plant response rating (0 to 100 scale)” value [22] was 80 and the “Plant response rating, Sedge, Umbrella (0 to 100 scale, 0 is no effect and 100 is complete control)” value [23] was 98. The “Plant response rating, Rice (0 to 100 scale, 0 is no effect and 100 is complete control)” value [24] was 85, the “Plant response rating, Ducksalad (0 to 100 scale, 0 is no effect and 100 is complete control)” value [25] was 75 and the “Plant response rating, Barnyardgrass (0 to 100 scale, 0 is no effect and 100 is complete control)” value [26] was 55.
